In one experiment the target is BCR-FMS/BaF3 cells (Homo sapiens, UniProt P07333). The experiment is described as follows: BCR-FMS/BaF3 cell proliferation assay (ATPlite). Format: cell-based. The following applies: for BCR/BaF3 selectivity (Kit IC50/Fms IC50): Kit IC50/Fms IC50, BCR-KIT/BaF3 vs BCR-FMS/BaF3 cells; for IC50: BCR-FMS/BaF3 cells. An outline of the steps:
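Proliferation read by ATPlite luminescence after 3 days' exposure (37 °C, 5% CO2) to compound in 1:3 dilutions, eight points, maximum 10 μM final, DMSO control.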
For orientation: In ATP-based viability assays light output follows the ATP content of the culture.

Another experiment has as its target BCR-KIT/BaF3 cells (Homo sapiens, UniProt P10721). Kind of experiment: BCR-KIT/BaF3 cell proliferation assay (ATPlite). Format: cell-based. Particulars: read-out: BCR/BaF3 (IC50 μM) Kit. The procedure: Compounds are assessed in a variety of cell based assays. For example BCR-FMS/BaF3, BCR-KIT/BaF3, M-NFS-60, M-07e, and BAC1.2F5 cell proliferation assays are used to assess inhibitory activity of Fms or Kit and MV-4-11 cell proliferation assay is used to assess inhibitory activity in Flt-3. Reagent and assay conditions are as follows: • BCR-FMS/BaF3 and BCR-KIT/BaF3 cells: • Maintained in RPMI containing 10% FBS, 1% PenStrep, 1% NEAA, and 1% L-Glutamine, supplemented with 1 mg/mL G418 and 5% WEHI-CM (or recombinant murine IL-3). • Confluent cells are split 1:50 to 1:100 every 3-4 days. • M-NFS-60 cells (ATCC #CRL-1838): • Maintained in RPMI containing 10% FBS, 1% Hepes, 1% NaPyruvate, and 0.45% Glucose, supplemented with 62 ng/mL murine M-CSF. • Confluent cells are split 1:20 every 3-4 days. • M-07e cells (DSMZ #ACC 104): • Maintained in IMDM containing 10% FBS, supplemented with either 200 ng/mL human SCF or […] SCF (R&D Systems 255-SC). • Confluent cells are split 1:5 to 1:10 every 3-4 days. • BAC1.2F5 cells: • Maintained in Alpha-MEM containing 10% Newborn Calf Serum (Invitrogen #26010-074) supplemented with 36 ng/mL murine M-CSF. • Confluent cells are split 1:4 every 3-4 days. • MV-4-11 cells: • Maintained in Iscove's Modified Dulbecco's Medium containing 10% FBS. • Confluent cells are split 1:4 every 3-4 days. On day 1, cells are counted, then centrifuged in a conical tube for 5 minutes at 1000 rpm. The supernatant is removed and cells are re-suspended as follows: • BCR-FMS/BaF3 and BCR-KIT/BaF3: resuspend in growth media+1 mg/mL G418 (without WEHI/IL-3) to 2×10^5 cells/mL. • M-NFS-60: resuspend in growth media +62 ng/mL murine M-CSF to 5×10^5 cells/mL. • M-07e: resuspend in growth media +200 ng/mL human SCF to 5×10^5 cells/mL. • BAC1.2F5: resuspend in growth media +36 ng/mL murine M-CSF to 1.4×10^5 cells/mL. • MV-4-11: resuspend in growth media +10% FBS to 5×10^5 cells/mL. The cells are plated (50 μL) in each well of a 96-well dish (Corning 3610) and incubated at 37° C. in 5% CO2 overnight, cells plated to a final concentration of cells as follows: • BCR-FMS/BaF3 and BCR-KIT/BaF3: 10,000 cells per well. • M-NFS-60: 25,000 cells per well. • M-07e: 25,000 cells per well. • BAC1.2F5: 7,000 cells per well. • MV-4-11: 25,000 cells per well. On day 2, compound at a maximum concentration of 5 mM is serially diluted 1:3 for a total of 8 point titration with DMSO as a control. A 1 μL aliquot of each dilution point is added to 249 μL growth media and 50 μL is added to a well containing cells, providing 10 μM compound for the maximum concentration point. The cells are incubated for 3 days at 37° C. in 5% CO2. On day 5, ATPlite 1 step Luminescence Assay System (Perkin Elmer #6016739) is brought to room temperature along with the cell cultures. ATPlite is added to each well as follows: • BCR-FMS/BaF3 and BCR-KIT/BaF3: 25 μL per well. • M-NFS-60: 25 μL per well. • M-07c: 40 μL per well. • BAC1.2F5: 50 μL per well. • MV-4-11: 40 μL per well. The cells are incubated at room temperature for 10 minutes, then luminescence is read on Safire reader. The measured luminescence correlates directly with cell number, such that the reading as a function of compound concentration is used to determine the IC50 value.

Setting [1] is: read-out: BCR/BaF3 (IC50 μM) Fms.
Where [2] appears, read: read-out: Cell based (IC50 μM) BCR/BaF3 (Fms), 3 days.

The record followed here is US9096593B2, “Compounds and methods for kinase modulation, and indications therefor” (Plexxikon Inc., priority 2009, dated 2015).

Read-outs that look alike come from different tables or passages of the source.

Sequence of BCR-KIT/BaF3 cells (P10721 26-976 limits assumed, change not shown): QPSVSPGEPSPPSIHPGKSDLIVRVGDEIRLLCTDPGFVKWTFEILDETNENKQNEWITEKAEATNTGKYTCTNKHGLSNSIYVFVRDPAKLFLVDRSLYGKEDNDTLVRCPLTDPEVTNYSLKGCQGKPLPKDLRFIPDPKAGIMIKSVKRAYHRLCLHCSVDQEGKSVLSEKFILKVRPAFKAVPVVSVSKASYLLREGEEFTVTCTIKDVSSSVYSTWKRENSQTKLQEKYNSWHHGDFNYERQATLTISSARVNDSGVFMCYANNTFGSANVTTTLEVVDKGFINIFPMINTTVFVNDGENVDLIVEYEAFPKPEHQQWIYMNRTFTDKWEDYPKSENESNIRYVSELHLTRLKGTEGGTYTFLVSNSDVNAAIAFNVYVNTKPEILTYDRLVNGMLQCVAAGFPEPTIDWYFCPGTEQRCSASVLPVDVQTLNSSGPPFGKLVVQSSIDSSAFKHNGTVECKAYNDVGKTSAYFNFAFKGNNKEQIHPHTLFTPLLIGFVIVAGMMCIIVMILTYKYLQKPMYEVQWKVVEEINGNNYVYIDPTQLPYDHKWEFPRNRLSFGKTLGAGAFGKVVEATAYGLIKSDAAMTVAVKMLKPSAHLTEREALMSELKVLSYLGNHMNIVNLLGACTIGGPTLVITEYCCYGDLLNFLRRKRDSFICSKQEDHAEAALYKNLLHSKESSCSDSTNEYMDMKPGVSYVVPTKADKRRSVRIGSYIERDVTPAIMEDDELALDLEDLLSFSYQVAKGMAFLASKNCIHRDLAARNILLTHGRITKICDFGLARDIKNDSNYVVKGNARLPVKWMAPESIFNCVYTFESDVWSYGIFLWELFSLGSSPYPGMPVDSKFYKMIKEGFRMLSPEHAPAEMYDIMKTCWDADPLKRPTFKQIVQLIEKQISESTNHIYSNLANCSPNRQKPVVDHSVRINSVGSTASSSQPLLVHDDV
Sequence of BCR-FMS/BaF3 cells (P07333 20-972 limits assumed, change not shown): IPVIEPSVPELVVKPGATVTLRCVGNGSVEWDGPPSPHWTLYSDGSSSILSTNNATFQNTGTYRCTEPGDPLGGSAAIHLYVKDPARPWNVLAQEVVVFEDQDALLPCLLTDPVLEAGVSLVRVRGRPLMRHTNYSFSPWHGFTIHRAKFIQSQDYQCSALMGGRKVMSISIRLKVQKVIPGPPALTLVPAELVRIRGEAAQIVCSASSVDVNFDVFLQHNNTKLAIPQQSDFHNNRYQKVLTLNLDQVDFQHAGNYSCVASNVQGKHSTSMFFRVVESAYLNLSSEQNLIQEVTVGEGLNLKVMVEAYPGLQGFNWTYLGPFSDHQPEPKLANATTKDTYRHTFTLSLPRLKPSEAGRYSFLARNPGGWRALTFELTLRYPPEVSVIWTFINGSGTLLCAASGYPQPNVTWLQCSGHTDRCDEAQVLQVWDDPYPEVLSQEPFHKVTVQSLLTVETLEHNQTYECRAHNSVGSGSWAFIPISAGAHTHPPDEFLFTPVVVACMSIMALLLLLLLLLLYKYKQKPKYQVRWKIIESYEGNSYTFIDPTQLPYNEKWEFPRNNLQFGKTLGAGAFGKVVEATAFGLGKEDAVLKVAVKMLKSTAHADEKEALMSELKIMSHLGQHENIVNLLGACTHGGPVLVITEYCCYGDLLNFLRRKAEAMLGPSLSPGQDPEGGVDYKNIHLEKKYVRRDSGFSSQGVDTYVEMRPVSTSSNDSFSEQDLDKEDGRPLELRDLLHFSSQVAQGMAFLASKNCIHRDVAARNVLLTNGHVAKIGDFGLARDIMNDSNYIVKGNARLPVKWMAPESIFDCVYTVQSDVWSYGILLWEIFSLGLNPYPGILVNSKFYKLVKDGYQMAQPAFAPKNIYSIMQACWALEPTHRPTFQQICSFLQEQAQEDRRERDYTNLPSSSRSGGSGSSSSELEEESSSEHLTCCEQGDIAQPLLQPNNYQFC

For the compound `COc1ccc(CNc2ccc(Cc3c[nH]c4ncc(C)cc34)c(F)n2)cn1` [Compound P-2029, [6-Fluoro-5-(5-methyl-1H-pyrrolo[2,3-b]pyridin-3-ylmethyl)-pyridin-2-yl]-(6-methoxy-pyridin-3-ylmethyl)-amine], the “BCR/BaF3 selectivity (Kit IC50/Fms IC50)” value on BCR-FMS/BaF3 cells is listed as above 20. Also, the IC50 at BCR-FMS/BaF3 cells (setting [1]) was below 0.1 µM; at BCR-FMS/BaF3 cells (setting [2]), below 0.1 µM; on BCR-KIT/BaF3 cells, above 0.1 µM.

Take `COc1cnc2[nH]cc(Cc3ccc(NCc4ccc(OC)nc4)nc3F)c2c1` [Compound P-2030, [6-Fluoro-5-(5-methoxy-1H-pyrrolo[2,3-b]pyridin-3-ylmethyl)-pyridin-2-yl]-(6-methoxy-pyridin-3-ylmethyl)-amine]: the “BCR/BaF3 selectivity (Kit IC50/Fms IC50)” value on BCR-FMS/BaF3 cells is on record as above 20. In addition, the figures for the IC50 at BCR-FMS/BaF3 cells (setting [1]), on BCR-FMS/BaF3 cells (setting [2]) and at BCR-KIT/BaF3 cells were below 0.1 µM, below 0.1 µM and above 0.1 µM, respectively.

On to `Cc1cnc2[nH]cc(Cc3ccc(NCc4ccc(C(F)(F)F)nc4)nc3F)c2c1` [Compound P-2031, [6-Fluoro-5-(5-methyl-1H-pyrrolo[2,3-b]pyridin-3-ylmethyl)-pyridin-2-yl]-(6-trifluoromethyl-pyridin-3-ylmethyl)-amine], for which the “BCR/BaF3 selectivity (Kit IC50/Fms IC50)” value at BCR-FMS/BaF3 cells is listed as above 20. In addition, the results for the IC50 at BCR-FMS/BaF3 cells (setting [1]), at BCR-FMS/BaF3 cells (setting [2]) and at BCR-KIT/BaF3 cells were below 0.1 µM, below 0.1 µM and above 0.1 µM, respectively.

`COc1cnc2[nH]cc(Cc3ccc(NCc4ccc(Cl)cc4)nc3F)c2c1` [Compound P-2032, (4-Chloro-benzyl)-[6-fluoro-5-(5-methoxy-1H-pyrrolo[2,3-b]pyridin-3-ylmethyl)-pyridin-2-yl]-amine]: at BCR-FMS/BaF3 cells, the “BCR/BaF3 selectivity (Kit IC50/Fms IC50)” value is on record as below 20. The IC50 at BCR-FMS/BaF3 cells (setting [1]), on BCR-FMS/BaF3 cells (setting [2]) and on BCR-KIT/BaF3 cells was below 0.1 µM in each case.

Consider `COc1ccnc2[nH]cc(Cc3ccc(NCc4ccc(Cl)cc4)nc3F)c12` [Compound P-2037, (4-Chloro-benzyl)-[6-fluoro-5-(4-methoxy-1H-pyrrolo[2,3-b]pyridin-3-ylmethyl)-pyridin-2-yl]-amine], for which the “BCR/BaF3 selectivity (Kit IC50/Fms IC50)” value at BCR-FMS/BaF3 cells is reported as below 20. For the same compound, the figures for the IC50 on BCR-FMS/BaF3 cells (setting [1]), at BCR-FMS/BaF3 cells (setting [2]) and on BCR-KIT/BaF3 cells were below 0.1 µM, below 0.1 µM and above 0.1 µM, respectively.

With `COc1ccc(CNc2ncc(Cc3c[nH]c4ncc(Cl)cc34)cn2)cn1` [Compound P-2038, [5-(5-Chloro-1H-pyrrolo[2,3-b]pyridin-3-ylmethyl)-pyrimidin-2-yl]-(6-methoxy-pyridin-3-ylmethyl)-amine], at BCR-FMS/BaF3 cells, the “BCR/BaF3 selectivity (Kit IC50/Fms IC50)” value is listed as above 20. Besides, the values for the IC50 at BCR-FMS/BaF3 cells (setting [1]), at BCR-FMS/BaF3 cells (setting [2]) and on BCR-KIT/BaF3 cells were below 0.1 µM, below 0.1 µM and above 0.1 µM, respectively.

As to `COc1cnc2[nH]cc(Cc3ccc(NCc4cccnc4OC)nc3F)c2c1` [Compound P-2043, [6-Fluoro-5-(5-methoxy-1H-pyrrolo[2,3-b]pyridin-3-ylmethyl)-pyridin-2-yl]-(2-methoxy-pyridin-3-ylmethyl)-amine], the “BCR/BaF3 selectivity (Kit IC50/Fms IC50)” value at BCR-FMS/BaF3 cells is on record as above 20. The IC50 on BCR-FMS/BaF3 cells (setting [1]) was below 0.1 µM; at BCR-KIT/BaF3 cells, above 0.1 µM.

On to `COc1ncccc1CNc1ccc(Cc2c[nH]c3ncccc23)c(F)n1` [Compound P-2045, [6-Fluoro-5-(1H-pyrrolo[2,3-b]pyridin-3-ylmethyl)-pyridin-2-yl]-(2-methoxy-pyridin-3-ylmethyl)-amine], for which, on BCR-FMS/BaF3 cells, the “BCR/BaF3 selectivity (Kit IC50/Fms IC50)” value is above 20. Also, the IC50 is below 0.1 µM on BCR-FMS/BaF3 cells (setting [1]) and above 0.1 µM at BCR-KIT/BaF3 cells.

Consider `COc1ncccc1CNc1ccc(Cc2c[nH]c3ncc(C)cc23)c(F)n1` [Compound P-2052, [6-Fluoro-5-(5-methyl-1H-pyrrolo[2,3-b]pyridin-3-ylmethyl)-pyridin-2-yl]-(2-methoxy-pyridin-3-ylmethyl)-amine], for which the “BCR/BaF3 selectivity (Kit IC50/Fms IC50)” value on BCR-FMS/BaF3 cells is above 20. Further, the IC50 at BCR-FMS/BaF3 cells (setting [1]) is below 0.1 µM; at BCR-KIT/BaF3 cells, above 0.1 µM.
